Each compound was assayed on XBP-1 splicing (assay: Inhibition of endogenous XBP-1 splicing in RPMI 8226 cells with thapsigargin (RT-PCR)). Conditions: 300 nM, 2 hours.
Type: cell-based, human
Method: PCR amplification products were run on a 4% agarose gel and stained with ethidium bromide. The inverse image is shown.
RPMI 8226 cells were grown in monolayer culture using Dulbecco's Modified Eagle Medium (DMEM) supplemented with 10% fetal calf serum (FCS) at 37° C. and 5% CO2. Compounds were kept as 10 mM stock in DMSO at −20° C. and diluted in medium to 10 μM. Thapsigargin (Tg) was resuspended in DMSO and diluted in medium.
Procedures for measuring XBP-1s and XBP-1u mRNAs have been described previously (Volkmann et al., J. Biol. Chem. 286, 12743-55, 2011). Briefly, total RNA was harvested from cells or tissue using TRIZOL® (Invitrogen) according to the manufacture's procedures. After ethanol precipitation and resuspension of the RNA, RIBOGREEN® (Invitrogen) was used to quantify the yield- and normalize the RNA concentration in the source tube containing isolated RNA. RT-PCR was performed by oligo dT priming, […]® II (Invitrogen) and reverse transcription using the […] GOLD® Kit (Applied Biosystems) according to the manufacturer's protocols. Primers for human XBP-1 were
All DNA oligos were purchased from IDT DNA Technologies. PCR reactions were run on a Bio-Rad PTC-100® 96-well thermocycler; heating at 94° C. for 30 seconds, annealing at 58° C. for 30 seconds polymerizing at 72° C. for 30 seconds for 35 cycles.

| Structure (SMILES) | conversion of XBP-1u to XBP-1s |
| --- | --- |
| C/C=C(/C)C(=O)O[C@H]1C(C)=C2[C@H]([C@@H]1OC(=O)CCCCCCC)[C@@](C)(OC(C)=O)C[C@H](OC(=O)CCC)[C@@]1(O)[C@H]2OC(=O)[C@@]1(C)O [Thapsigargin] | near complete conversion of XBP-1u to XBP-1s |

Each compound was assayed on human myeloma RPMI8226 tumor xenografts (assay: RPMI8226 xenograft efficacy model). Conditions: after cessation of therapy.
Type: in vivo, SCID mice
Method: SCID mice are evaluated for their ability to support implantation of desired tumor cells in support of model development and characterization. Mice are injected intravenously […] or implanted either subcutaneously (SC) or intraperitoneally (IP). To generate a relevant animal model mimicking human disease, it is desirable that all three approaches are evaluated for improved implantation rates and relevant disease progression, as is well known in the art. SC injections provide an easy way to measure tumor growth and efficacy, and IV and IP injections represent a more physiologically relevant model of human tumor spread. SC injections are given primarily in the flank, while IV injections are administered in the tail vein. Mice are manually restrained for SC and IP injections, and a Broome mouse restrainer is used for IV injections.
SCID mice are implanted with tumor cells (human RPMI8226 myeloma cells) via IP, IV or SC routes based on the results from the xenograft model development studies (above). Mice are treated with compound or mock treated (vehicle) for a period of up to 4-5 weeks. Compound administration can be via IV, IP, PO or SC routes. […]
Mice are monitored for tumor growth, regression and general health. […] Tumor growth is measured by calipers, ultrasound, or by abdominal lavage. Biomarkers in the blood or tumor can evaluated (primarily XBP-1 splicing). […]

| Structure (SMILES) | tumor recurrence |
| --- | --- |
| CC(C)C[C@H](NC(=O)[C@H](Cc1ccccc1)NC(=O)c1cnccn1)B(O)O [bortezomib, [(1R)-3-methyl-1-[[(2S)-1-oxo-3-phenyl-2-[(pyrazinylcarbonyl)amino]propyl]amino]butyl]boronic acid] | tumors often recurred and grew into large masses |

What follows are compounds tested against IRE-1α (Homo sapiens (Human), UniProt O75460) (assay: Cellular EC50: endogenous XBP-1 splicing in myeloma cells (MM.1s, DTT stress, RT-PCR)). Conditions: average cellular EC50, XBP-1 splicing in myeloma cells.
Chain of IRE-1α (O75460 19-977): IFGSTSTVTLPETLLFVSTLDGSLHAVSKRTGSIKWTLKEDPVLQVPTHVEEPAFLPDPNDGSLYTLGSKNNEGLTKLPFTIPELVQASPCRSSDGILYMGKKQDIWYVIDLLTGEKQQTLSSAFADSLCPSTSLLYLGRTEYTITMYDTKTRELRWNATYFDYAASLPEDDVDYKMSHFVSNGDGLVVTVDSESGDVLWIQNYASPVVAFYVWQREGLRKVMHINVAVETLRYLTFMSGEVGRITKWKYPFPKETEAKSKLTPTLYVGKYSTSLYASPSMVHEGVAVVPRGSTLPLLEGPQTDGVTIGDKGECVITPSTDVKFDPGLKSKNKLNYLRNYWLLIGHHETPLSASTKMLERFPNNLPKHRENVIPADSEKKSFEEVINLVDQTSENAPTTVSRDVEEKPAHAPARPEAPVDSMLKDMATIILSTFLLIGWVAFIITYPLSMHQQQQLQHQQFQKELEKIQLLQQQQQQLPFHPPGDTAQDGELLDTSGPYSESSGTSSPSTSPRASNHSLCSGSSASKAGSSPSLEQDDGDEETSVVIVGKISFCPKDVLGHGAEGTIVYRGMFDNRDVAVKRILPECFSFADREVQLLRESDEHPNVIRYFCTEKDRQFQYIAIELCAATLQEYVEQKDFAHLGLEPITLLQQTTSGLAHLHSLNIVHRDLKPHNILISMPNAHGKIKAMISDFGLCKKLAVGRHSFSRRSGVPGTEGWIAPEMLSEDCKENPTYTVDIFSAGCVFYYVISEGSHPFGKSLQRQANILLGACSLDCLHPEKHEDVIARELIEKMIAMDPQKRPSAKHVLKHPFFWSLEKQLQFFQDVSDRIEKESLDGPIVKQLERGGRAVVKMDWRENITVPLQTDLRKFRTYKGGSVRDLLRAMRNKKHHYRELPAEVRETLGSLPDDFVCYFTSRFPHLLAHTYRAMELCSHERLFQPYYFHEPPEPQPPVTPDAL
Type: cell-based
Method: Human myeloma MM.1s cells are incubated with a compound for 1.25 hours before stressing the cells with 2 mM dithiothreitol (DTT). After an additional 45 minutes (2 hours total) with compound and DTT, the cells are harvested with TRIZOL® (a mono-phasic solution of phenol and guanidine isothiocyanate), and total RNA is prepared as directed by the manufacturer (Invitrogen). Human XBP-1 is amplified by RT-PCR with the following primers, which flank the 26 base unconventional intron excised by IRE-1α:
RT-PCR of unstressed (U) cells then generates the upper band. When cells are stressed (S) with the endoplasmic reticulum (ER) stressing agent DTT, IRE-1α is activated due to accumulating unfolded protein and the resulting RT-PCR product is 26 base pairs shorter.
Compounds which pass specificity assays are assayed for cellular EC50 using endogenous XBP-1 splicing in myeloma cells. XBP-1 is regulated through the excision of a 26 nucleotide intron from the XBP-1 mRNA by the highly specific endoribonuclease activity of IRE-1α. […] This splicing event is used to measure IRE-1α activity on XBP-1 mRNA in cells and tissues.
Briefly, compounds are incubated in the presence or absence of an ER stress agent (e.g., DTT), and the ratio of XBP-1u (unspliced) to XBP-1s (spliced) is quantified by RT-PCR. The ED50 is determined as the 50% XBP-1s to total XPB-1 levels.

| Structure (SMILES) | EC50 [µM] |
| --- | --- |
| O=Cc1c(O)ccc2ocnc12 [Example 257] | > 10 |
| COCCOc1cc(O)c(C=O)c2oc(=O)c(CC(=O)NCCN(C)C)c(C)c12 [Example 164] | > 10 |
| COCCNC(=O)c1cc2c(C=O)c(O)ccc2s1 [Example 258] | > 10 |
| COCCNC(=O)CCc1nc2c(C=O)c(O)ccc2[nH]1 [Example 231] | > 10 |
| O=Cc1c(O)ccc2oc(CCC(=O)O)nc12 [Example 248] | > 10 |
| Cc1nc2ccc(O)c(C=O)c2o1 [Example 256] | > 10 |
| CCOC(=O)CCc1cc2c(C=O)c(O)ccc2s1 [Example 267] | > 10 |
| CCOC(=O)c1cc2c(C=O)c(O)ccc2[nH]1 [Example 279] | > 10 |
| Cn1c(CCC(=O)NCCN2CCOCC2)nc2c(C=O)c(O)ccc21 [Example 243] | > 10 |
| COc1cc2c(C)c(CCC(=O)NCCN(C)C)c(=O)oc2c(C=O)c1O [Example 175] | > 10 |
| CC(C(=O)N1CCOCC1)c1nc2c(C=O)c(O)ccc2o1 (stereo not drawn) [Example 254] | > 10 |
| CN1CCN(C(=O)CCc2nc3c(C=O)c(O)ccc3n2C)CC1 [Example 244] | > 10 |
| COCCOc1cc2c(C)c(CC(=O)N3CCN(C)CC3)c(=O)oc2c(C=O)c1O [Example 189] | < 10 |
| Cc1oc2c(C=O)c(O)ccc2c(=O)c1CC(=O)NCCN1CCOCC1 [Example 225] | > 10 |
| CCOC(=O)CCc1c(C)c2cc(N(C)C(C)=O)c(O)c(C=O)c2oc1=O [Example 144] | > 10 |
| CC(C)c1cc(=O)oc2c(C=O)c(O)ccc12 [Example 5] | < 10 |
| COc1cc2c(C)c(C)c(=O)oc2c(C=O)c1O [Example 199] | > 10 |

The next lines start with the values.

| EC50 [µM] | Structure (SMILES) |
| --- | --- |
| > 10 | O=Cc1c(O)ccc2[nH]c(C(=O)NCCN3CCOCC3)cc12 [Example 277] |
| < 10 | CCNC(=O)Cc1c(C)c2c(OCCOC)cc(O)c(C=O)c2oc1=O [Example 162] |
| < 10 | COCc1cc(=O)oc2c(C=O)c(O)c(OC)cc12 [Example 136] |
| > 10 | Cc1c(CC(=O)O)c(=O)oc2c(C=O)c(O)ccc12 [Example 70] |
| > 10 | COCCNC(=O)CCc1nc2c(C=O)c(O)ccc2o1 [Example 249] |
| < 10 | Cc1nc2c(C=O)c(O)ccc2o1 [Example 255] |
| > 10 | Cn1c(CCC(=O)NCCN2CCOCC2)nc2ccc(O)c(C=O)c21 [Example 238] |
| < 10 | COCCNC(=O)CCc1c(C)c2c(OC)cc(O)c(C=O)c2oc1=O [Example 194] |
| < 10 | COCOCCNC(=O)Cc1c(C)c2cc(OC)c(O)c(C=O)c2oc1=O [Example 149] |
| < 10 | COc1cc2c(C)c(CCC(=O)N3CCN(C)CC3)c(=O)oc2c(C=O)c1O [Example 173] |
| < 10 | COCCOc1cc(O)c(C=O)c2oc(=O)c(CC(=O)N3CCOCC3)c(C)c12 [Example 160] |
| < 10 | O=Cc1c(O)ccc2nc(-c3cccc(C(=O)NCCN4CCOCC4)c3)ccc12 [Example 46] |
| < 10 | COc1cc(O)c(C=O)c2oc(=O)c(CCC(=O)NCCN(C)C)c(C)c12 [Example 195] |
| < 10 | COCCNC(=O)Cc1c(C)c2cc(OCCOC)c(O)c(C=O)c2oc1=O [Example 190] |
| < 10 | CCNC(=O)CCc1c(C)c2c(OCCOC)cc(O)c(C=O)c2oc1=O [Example 155] |
| < 10 | COc1cc2c(C)c(CC(=O)NCCN(C)C)c(=O)oc2c(C=O)c1O [Example 170] |
| < 10 | COCCNC(=O)CCc1c(C)c2cc(OCCOC)c(O)c(C=O)c2oc1=O [Example 184] |
| < 10 | CCOC(=O)c1cnc(-c2cc3ccc(O)c(C=O)c3oc2=O)s1 [Example 106] |
| < 10 | COCCOc1cc(O)c(C=O)c2oc(=O)c(CC(=O)NCCN3CCOCC3)c(C)c12 [Example 163] |
| < 10 | CN1CCN(C(=O)c2cccc(-c3ccc4c(C=O)c(O)ccc4n3)c2)CC1 [Example 42] |
| < 10 | Cc1c(CC(=O)N2CCOCC2)c(=O)oc2c(C=O)c(O)ccc12 [Example 129] |
| < 10 | Cc1nc(-c2cc3ccc(O)c(C=O)c3oc2=O)sc1C(=O)N1CCN(C)CC1 [Example 108] |
| < 10 | COc1cc(O)c(C=O)c2oc(=O)c(CCC(=O)N3CCOCC3)c(C)c12 [Example 192] |
